Experimental findings from ChEMBL document CHEMBL5465560, “Selectivity Literature for EUbOPEN Chemogenomic Library” (2024) are described below.

In experiment [1] the target is PAS domain-containing serine/threonine-protein kinase (Homo sapiens) (UniProt Q96RG2). As to the kind of experiment: Selectivity interaction (Kinase panel (Z-LYTE Assay)) EUB0001632a PASK. Particulars: at 10 µM.
The target of experiment [2] is T1, Mitogen-activated protein kinase kinase kinase 7 (Homo sapiens) (UniProt O43318).
T1 sequence (whole entry): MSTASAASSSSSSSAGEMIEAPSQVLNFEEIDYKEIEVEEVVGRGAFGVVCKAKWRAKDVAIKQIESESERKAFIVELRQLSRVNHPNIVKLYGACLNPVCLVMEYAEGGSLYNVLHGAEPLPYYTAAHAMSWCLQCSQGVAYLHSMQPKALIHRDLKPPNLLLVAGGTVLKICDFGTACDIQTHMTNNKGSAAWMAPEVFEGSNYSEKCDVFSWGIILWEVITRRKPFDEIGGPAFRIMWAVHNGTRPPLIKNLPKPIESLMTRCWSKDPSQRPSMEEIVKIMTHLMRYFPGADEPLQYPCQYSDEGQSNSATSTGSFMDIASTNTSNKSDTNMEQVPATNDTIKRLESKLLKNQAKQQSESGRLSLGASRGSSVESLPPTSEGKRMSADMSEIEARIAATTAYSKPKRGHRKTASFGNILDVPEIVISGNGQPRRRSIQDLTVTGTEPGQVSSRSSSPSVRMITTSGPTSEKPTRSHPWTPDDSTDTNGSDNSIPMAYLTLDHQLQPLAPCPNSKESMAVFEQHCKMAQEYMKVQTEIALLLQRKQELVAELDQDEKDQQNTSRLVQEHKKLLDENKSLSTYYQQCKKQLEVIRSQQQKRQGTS
As to the kind of experiment: Selectivity interaction (KinomeScan (DiscoverX)) EUB0000229b MAP3K7. The settings on record: at 10 µM.

For experiment [3], the target named is T2, Serine/threonine-protein kinase TBK1 (Homo sapiens) (UniProt Q9UHD2).
T2 sequence (whole entry): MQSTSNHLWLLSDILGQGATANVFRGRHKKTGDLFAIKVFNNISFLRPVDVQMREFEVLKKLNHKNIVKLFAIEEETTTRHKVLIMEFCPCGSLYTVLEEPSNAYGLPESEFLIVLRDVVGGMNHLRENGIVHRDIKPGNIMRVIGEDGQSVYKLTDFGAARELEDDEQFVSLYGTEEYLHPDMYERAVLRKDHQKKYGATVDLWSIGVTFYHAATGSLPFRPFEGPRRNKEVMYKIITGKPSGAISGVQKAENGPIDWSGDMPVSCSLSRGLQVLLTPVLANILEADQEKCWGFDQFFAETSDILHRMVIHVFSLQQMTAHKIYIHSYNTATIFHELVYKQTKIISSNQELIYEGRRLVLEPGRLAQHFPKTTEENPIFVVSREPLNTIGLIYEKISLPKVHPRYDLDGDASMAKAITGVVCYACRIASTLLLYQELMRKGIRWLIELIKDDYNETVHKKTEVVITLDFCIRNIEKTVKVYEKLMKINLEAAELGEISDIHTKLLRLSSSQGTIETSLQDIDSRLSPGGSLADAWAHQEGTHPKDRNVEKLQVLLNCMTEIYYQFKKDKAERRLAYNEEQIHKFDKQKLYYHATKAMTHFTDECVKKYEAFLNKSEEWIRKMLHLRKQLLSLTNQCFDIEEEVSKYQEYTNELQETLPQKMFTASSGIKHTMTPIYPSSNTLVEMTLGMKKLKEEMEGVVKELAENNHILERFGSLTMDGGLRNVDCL
Kind of experiment: Selectivity interaction (KinomeScan (DiscoverX)) EUB0000229b TBK1. The settings on record: at 10 µM.

Experiment [4] concerns Tyrosine-protein kinase ABL1 (Homo sapiens), P00519 [F317I]. As to the kind of experiment: Selectivity interaction (KinomeScan (DiscoverX)) EUB0001079a ABL1. The settings on record: at 1 µM.
Experiment [5] concerns the target T3, Cyclin-G-associated kinase (Homo sapiens) (UniProt O14976).
T3 sequence (whole entry): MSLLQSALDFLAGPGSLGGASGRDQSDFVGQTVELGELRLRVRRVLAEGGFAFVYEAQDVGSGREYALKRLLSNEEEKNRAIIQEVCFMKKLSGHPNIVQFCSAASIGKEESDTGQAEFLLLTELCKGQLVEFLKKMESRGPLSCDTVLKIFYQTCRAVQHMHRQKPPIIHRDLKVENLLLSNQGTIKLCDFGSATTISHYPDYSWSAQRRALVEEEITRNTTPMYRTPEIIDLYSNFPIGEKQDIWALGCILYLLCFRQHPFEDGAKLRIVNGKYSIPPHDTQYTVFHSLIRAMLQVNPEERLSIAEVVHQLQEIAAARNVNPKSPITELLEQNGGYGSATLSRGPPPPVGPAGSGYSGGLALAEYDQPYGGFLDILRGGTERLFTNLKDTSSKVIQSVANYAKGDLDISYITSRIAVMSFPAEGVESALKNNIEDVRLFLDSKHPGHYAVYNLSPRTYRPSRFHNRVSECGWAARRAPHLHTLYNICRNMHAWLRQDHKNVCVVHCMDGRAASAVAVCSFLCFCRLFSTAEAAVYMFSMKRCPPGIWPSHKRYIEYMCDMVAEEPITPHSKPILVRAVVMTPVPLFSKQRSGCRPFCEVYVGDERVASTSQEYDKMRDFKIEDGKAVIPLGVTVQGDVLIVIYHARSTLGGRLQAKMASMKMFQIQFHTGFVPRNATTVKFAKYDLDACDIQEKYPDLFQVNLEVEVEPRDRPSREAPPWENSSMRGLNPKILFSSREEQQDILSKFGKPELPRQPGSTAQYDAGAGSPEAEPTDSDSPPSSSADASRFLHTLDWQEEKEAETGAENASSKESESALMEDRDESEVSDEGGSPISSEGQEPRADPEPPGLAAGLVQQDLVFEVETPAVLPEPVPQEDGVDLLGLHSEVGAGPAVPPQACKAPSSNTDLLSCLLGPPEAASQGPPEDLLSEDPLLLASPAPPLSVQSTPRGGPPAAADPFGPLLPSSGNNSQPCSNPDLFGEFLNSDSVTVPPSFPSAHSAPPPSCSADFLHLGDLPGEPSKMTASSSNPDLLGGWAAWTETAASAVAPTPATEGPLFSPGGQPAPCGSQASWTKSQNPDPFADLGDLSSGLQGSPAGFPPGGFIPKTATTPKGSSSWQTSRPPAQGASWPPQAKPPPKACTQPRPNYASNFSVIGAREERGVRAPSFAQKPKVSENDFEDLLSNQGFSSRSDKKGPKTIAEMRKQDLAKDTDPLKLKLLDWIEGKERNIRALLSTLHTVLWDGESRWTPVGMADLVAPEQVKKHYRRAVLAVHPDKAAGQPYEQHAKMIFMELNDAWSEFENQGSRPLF
As to the kind of experiment: Selectivity interaction (KinomeScan (DiscoverX)) EUB0001619a GAK. Particulars: at 1 µM.

In experiment [6] the target is Tyrosine-protein kinase JAK1 (Homo sapiens, UniProt P23458). As to the kind of experiment: Selectivity interaction (ActivX KiNativ screen (ex vivo kinase selectivity in human PBMCs)) EUB0001619a JAK1. It counts as cell-based. The settings on record: PBMC, at 1 µM.
In experiment [7] the target is Tyrosine-protein kinase Fes/Fps (Homo sapiens) (UniProt P07332). Kind of experiment: Selectivity interaction (KinomeScan (DiscoverX)) EUB0000618a FES. The settings on record: at 10 µM.
Tyrosine-protein kinase Fes/Fps (Homo sapiens), sequence (P07332 whole entry): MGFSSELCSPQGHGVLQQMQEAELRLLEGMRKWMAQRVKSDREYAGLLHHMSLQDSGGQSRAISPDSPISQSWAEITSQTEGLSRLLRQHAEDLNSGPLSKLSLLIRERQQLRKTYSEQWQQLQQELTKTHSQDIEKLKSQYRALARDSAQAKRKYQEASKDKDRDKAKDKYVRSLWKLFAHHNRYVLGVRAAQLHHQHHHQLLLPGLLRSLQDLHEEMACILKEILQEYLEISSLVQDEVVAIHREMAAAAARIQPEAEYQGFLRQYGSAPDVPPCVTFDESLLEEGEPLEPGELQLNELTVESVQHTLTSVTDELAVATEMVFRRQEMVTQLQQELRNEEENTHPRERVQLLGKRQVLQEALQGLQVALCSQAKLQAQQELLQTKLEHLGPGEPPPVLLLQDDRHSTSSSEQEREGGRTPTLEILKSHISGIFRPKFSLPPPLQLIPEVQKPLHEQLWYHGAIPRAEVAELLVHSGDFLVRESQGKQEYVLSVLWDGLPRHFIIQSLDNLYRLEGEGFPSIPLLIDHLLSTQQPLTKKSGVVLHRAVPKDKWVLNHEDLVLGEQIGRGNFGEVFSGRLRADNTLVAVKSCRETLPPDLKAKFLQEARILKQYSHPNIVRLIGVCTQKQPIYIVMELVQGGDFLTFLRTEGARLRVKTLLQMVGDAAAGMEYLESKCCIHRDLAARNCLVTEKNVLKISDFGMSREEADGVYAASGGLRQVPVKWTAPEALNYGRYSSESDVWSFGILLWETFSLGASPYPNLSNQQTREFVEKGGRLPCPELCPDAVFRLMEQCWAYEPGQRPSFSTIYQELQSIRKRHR

PAS domain-containing serine/threonine-protein kinase (Homo sapiens), sequence (Q96RG2 whole entry, the tested form may be a part): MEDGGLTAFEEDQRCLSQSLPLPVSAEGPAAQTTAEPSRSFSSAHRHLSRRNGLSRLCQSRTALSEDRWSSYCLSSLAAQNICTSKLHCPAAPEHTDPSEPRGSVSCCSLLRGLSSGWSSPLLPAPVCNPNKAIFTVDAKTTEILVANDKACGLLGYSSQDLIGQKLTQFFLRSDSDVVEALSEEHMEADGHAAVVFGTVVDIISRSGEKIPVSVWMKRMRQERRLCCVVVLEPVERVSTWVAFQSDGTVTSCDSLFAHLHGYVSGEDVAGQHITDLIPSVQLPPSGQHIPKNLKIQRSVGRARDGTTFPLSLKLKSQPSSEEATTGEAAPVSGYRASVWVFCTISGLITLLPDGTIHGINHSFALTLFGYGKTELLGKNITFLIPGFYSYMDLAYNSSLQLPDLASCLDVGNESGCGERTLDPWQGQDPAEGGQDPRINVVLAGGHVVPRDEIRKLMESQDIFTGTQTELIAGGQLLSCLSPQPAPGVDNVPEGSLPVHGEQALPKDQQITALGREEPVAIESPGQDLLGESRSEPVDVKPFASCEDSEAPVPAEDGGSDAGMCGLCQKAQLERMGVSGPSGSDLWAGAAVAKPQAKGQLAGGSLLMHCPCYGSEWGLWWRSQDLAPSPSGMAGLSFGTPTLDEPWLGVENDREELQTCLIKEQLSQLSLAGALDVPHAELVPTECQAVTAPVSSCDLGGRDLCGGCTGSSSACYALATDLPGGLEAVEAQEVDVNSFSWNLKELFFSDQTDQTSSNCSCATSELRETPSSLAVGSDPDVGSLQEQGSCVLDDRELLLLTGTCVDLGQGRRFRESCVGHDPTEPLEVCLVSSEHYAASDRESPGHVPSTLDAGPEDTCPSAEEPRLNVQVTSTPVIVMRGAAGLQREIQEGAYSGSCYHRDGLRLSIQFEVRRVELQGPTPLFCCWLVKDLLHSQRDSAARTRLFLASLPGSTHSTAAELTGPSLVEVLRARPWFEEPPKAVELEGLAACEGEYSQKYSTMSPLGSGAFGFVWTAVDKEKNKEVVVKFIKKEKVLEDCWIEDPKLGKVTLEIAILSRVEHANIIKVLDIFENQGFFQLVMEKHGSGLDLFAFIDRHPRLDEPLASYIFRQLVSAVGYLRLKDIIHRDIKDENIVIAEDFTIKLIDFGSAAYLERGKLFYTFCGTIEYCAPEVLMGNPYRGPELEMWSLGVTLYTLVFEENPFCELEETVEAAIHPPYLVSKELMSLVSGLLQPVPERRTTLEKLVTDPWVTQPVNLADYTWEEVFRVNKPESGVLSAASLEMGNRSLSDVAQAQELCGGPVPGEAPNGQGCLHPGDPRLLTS
Tyrosine-protein kinase JAK1, sequence (P23458 whole entry): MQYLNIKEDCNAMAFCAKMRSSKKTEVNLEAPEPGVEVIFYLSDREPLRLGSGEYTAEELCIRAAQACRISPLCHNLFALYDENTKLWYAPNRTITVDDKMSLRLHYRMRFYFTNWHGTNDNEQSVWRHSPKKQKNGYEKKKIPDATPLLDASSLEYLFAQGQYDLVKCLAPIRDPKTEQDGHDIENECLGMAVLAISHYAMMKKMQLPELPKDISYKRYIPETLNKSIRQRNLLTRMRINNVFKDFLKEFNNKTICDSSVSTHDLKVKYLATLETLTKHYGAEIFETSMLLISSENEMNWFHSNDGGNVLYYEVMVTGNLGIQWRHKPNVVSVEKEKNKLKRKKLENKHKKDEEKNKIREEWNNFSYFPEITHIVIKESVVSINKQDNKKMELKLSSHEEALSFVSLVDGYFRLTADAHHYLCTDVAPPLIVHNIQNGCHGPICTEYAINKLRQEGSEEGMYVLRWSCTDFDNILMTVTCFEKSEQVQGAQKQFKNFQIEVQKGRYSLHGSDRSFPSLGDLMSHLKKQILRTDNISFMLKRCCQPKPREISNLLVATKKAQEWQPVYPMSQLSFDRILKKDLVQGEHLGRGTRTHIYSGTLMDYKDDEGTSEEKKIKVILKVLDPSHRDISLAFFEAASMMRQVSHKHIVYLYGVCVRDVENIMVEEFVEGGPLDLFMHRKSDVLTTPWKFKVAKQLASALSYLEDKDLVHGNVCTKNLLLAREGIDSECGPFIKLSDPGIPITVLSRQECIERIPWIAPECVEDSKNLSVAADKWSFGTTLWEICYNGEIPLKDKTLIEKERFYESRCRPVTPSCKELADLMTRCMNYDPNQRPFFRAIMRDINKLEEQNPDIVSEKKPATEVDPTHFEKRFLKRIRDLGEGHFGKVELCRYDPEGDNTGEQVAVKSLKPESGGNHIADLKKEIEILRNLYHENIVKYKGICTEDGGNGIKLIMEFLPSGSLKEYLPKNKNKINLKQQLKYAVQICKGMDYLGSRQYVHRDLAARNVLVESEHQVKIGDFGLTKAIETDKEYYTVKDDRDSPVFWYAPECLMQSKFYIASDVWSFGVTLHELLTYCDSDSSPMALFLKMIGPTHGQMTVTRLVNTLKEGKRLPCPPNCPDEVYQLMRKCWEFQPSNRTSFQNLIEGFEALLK
Tyrosine-protein kinase ABL1 (Homo sapiens), P00519 [F317I], sequence (P00519 whole entry F317I): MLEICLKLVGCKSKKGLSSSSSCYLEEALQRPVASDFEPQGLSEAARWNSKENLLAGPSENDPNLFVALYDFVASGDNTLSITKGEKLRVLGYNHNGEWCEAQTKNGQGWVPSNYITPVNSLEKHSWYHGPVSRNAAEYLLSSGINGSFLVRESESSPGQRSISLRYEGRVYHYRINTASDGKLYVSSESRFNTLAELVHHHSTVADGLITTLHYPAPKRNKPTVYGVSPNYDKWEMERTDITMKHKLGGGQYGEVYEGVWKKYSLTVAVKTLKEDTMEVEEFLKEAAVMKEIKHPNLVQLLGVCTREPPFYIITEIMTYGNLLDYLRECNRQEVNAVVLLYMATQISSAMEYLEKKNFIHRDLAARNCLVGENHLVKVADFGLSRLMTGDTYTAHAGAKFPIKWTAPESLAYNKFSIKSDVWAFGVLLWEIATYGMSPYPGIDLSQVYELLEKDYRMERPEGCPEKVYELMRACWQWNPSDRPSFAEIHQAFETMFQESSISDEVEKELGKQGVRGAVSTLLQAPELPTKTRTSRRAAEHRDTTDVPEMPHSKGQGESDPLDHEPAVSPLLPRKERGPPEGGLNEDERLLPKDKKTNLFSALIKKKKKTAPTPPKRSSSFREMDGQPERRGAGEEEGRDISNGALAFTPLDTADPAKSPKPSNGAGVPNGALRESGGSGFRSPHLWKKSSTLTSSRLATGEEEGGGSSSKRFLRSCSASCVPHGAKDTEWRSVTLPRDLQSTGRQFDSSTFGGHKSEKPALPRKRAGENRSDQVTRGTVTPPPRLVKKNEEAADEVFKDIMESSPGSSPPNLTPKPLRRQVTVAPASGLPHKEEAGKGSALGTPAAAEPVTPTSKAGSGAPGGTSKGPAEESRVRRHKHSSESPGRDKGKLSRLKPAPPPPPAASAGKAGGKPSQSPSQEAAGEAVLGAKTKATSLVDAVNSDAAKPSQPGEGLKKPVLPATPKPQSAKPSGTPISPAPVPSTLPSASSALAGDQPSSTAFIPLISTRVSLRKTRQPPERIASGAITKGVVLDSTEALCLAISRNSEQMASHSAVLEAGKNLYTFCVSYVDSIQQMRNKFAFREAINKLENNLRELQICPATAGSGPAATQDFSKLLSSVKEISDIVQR

For the compound `Cn1cc(-n2cnc3c(NCc4nc5cc(Cl)c(Cl)cc5[nH]4)nc(N4CCOCC4)nc32)cn1`, the % of control in experiment [1] amounted to 2.87%.

As for `COc1cc(N(C)c2ccnc3ccc(C(F)(F)F)cc23)cc(OC)c1OC`, the % binding in experiment [2] amounted to 80%; in experiment [3], 72%.

The compound `Nc1cnc(N2CCc3cc(S(=O)(=O)Nc4c(F)cc(Cl)cc4F)cc(N4CCCC4=O)c32)nc1` [TP-020n] came in with a % of control in experiment [4] of 100%.

`N#Cc1cccc(-c2c[nH]c3ncnc(N4CCOCC4)c23)c1` had a % of control in experiment [5] of 100%. Besides, in experiment [6], the % of inhibition was -4%.

Consider `O[C@H]1CC[C@H](Nc2ncc3nc(Nc4c(F)cc(F)cc4F)n([C@H]4CCOC4)c3n2)CC1`, for which the % of control in experiment [7] amounted to 100%.
